Results on 13 compounds are retold here after patent US20260317333A1, “Heteroaryl Compounds as Ligand Directed Degraders of IRAK4” (Celgene Corporation, priority 2023, published 2026).

In general, IC50 refers to the point on the concentration scale where inhibition reaches its midpoint.

Counter-ions that a name gives are not always drawn.

Assay [1] addresses T1, IRAK4 (Homo sapiens, UniProt Q9NWZ3).
T1 sequence (Q9NWZ3 1-460): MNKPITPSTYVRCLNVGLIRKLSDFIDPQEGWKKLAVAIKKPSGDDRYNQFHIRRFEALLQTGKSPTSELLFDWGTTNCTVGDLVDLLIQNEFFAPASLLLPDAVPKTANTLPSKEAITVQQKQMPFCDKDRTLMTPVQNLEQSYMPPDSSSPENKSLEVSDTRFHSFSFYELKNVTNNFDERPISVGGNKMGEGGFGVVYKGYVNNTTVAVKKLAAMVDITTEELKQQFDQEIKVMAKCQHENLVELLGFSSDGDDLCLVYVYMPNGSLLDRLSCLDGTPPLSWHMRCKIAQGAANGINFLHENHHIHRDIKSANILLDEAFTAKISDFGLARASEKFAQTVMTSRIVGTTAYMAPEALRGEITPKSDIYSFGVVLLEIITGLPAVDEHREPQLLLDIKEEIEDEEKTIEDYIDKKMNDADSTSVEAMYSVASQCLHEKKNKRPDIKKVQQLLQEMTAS
Briefly: IRAK4 PhosphoSens Biochemical Assay (BIOCHEM). To be noted: 200 μM ATP; 10 μM peptide substrate AQT0326; 1 nM IRAK4; room temperature; 240 minutes. On the procedure: The PhosphoSens® biochemical assay was performed as described by the vendor (AssayQuant Technologies Inc. Marlborough, MA). A 1.25× stock solution of IRAK4 (PV4002, ThermoFisher Scientific, Waltham, MA) and a 5× stock solution of ATP and Sox conjugated peptide substrate, AQT0326 (CSKS-AQT0326B, AssayQuant Technologies), were prepared in 1× kinase reaction buffer consisting of 50 mM HEPES, pH 7.5, 0.01% Brij-35, 0.5 mM EGTA, 20 mM MgCl2 and 1 mM DTT. 10 μL of the ATP and substrate solution mix, for a final concentration of 200 μM ATP and 10 μM peptide substrate, was added to a Corning 3574 384-well, white, non-binding surface microtiter plate containing 0.5 μL of serially diluted test compounds prepared in DMSO. The reactions were started with the addition of 40 μL of the enzyme solution, for a final IRAK4 concentration of 1 nM, and monitored every 71 seconds for 240 minutes at λEX 360/λEM 485 in a BioTek Synergy H4 plate reader (Agilent Technologies, Santa Clara, CA) at room temperature. The initial linear portions of the progress curves were fit according to a linear equation to yield the slopes and converted to % inhibition based on a value of 100% activity for the no inhibitor treated control. IC50 values of each compound were obtained by fitting the % inhibition-compound concentration curves using Dotmatics software (Dotmatics, Bishops Stortford, Hertfordshire, England).

The target of assay [2] is T1, IRAK4. Briefly: ALE THP1 HTRF (IRAK4 degradation in THP1 cells, HTRF with anti-IRAK4 antibodies). On the set-up: THP1 Homogeneous Time Resolved Fluorescence (ALE THP1 HTRF) Procedure; endogenous in cells; host or cells: THP1. The format is cell-based. To be noted: THP1 cell lysate; for DC50: read-out: ALE THP1 HTRF EC50. On the procedure:
Cell culture media was prepared in a tissue culture hood in a sterile environment by adding 10% FBS and 1% Penicillin Streptomycin to 500 mL no phenol red RPMI 1640 media. The media was filtered through a Nalgene Bottle Top Filter and stored at 4° C.
For Homogenous Time Resolved Fluorescence (HTRF) assays, a Cisbio HTRF kit was used, which included: Lysis Buffer #1 4×, Blocking Reagent #3 100×, 20× Antibody 1 (Anti-IRAK4 d2), 20× Antibody 2 (Anti-IRAK4 k), and Detection Buffer.
4× Lysis Buffer was stored at 4° C. For use as 1× Lysis buffer, the 4× solution was diluted with de-ionized water (distilled water, Gibco Cat. #15230279) and 100× Blocking Reagent in a 1:3:0.04 volume ratio.
20× Antibody Solution aliquots were stored at −80° C. and the Detection Buffer was stored at 4° C. For use as a 1× Antibody Solution, the 20× Antibody Solution aliquot was diluted with Detection Buffer in a 1:19 volume ratio.
Cells were lysed at room temperature for 45 min with shaking. A BCA protein assay was performed and normalization was conducted to the desired total protein concentration with 1× lysis buffer. Next, 1× Antibody Solutions were prepared by adding 380 μL Detection Buffer to 20 μL 20× Antibody Solution aliquots and mixing well. 1× Antibody Solutions were combined 1:1 and briefly vortexed. For control wells, 20 μL 1× anti IRAK4-k Antibody Solution was saved. The 384-well plate (ProxiPlate-384 Plus, Perkin Elmer Cat. #6008289) was loaded by adding 4 μL of the mixed Antibody Solution to empty wells using a single channel repeater. Using a multi-channel repeater, 16 μL lysate was added per well, and any bubbles that were formed were popped with 20 μL pipette tips and Kimwipe edges. In column 10, triplicates of each control were prepared. In wells A10, B10, and C10, buffer control was prepared by adding 16 μL Lysis Buffer and 4 μL Detection Buffer. In wells D10, E10, and F10, cryptate control was prepared by adding 16 μL Lysis Buffer, 2 μL Detection Buffer, and 2 μL 1× anti-IRAK4-k Antibody Solution. In wells G10, H10, and I10, a negative control was prepared by adding 16 μL Lysis Buffer and 4 μL mixed Antibody Solution. The plate was sealed with a clear seal and covered with an aluminum lid. The plate was spun down at 800 g for 5 min and incubated in the dark at room temperature overnight. The next day, the plate was spun down at 800 g for 5 min. The samples were analyzed by a plate reader (Envision, PerkinElmer) using the Desnor 384 HTRF program.
(Time-resolved FRET reads energy transfer from a long-lived donor to a nearby acceptor.)

Turning to `N[C@@H]1C[C@@H](F)CN(c2ccn3ncc(C(=O)Nc4cn([C@H]5CC[C@H](CCN6CCN(c7ccc(C8CCC(=O)NC8=O)cc7)CC6)CC5)nc4C(F)(F)F)c3n2)C1` (stereo partly drawn) [Compound P-11, 5-((3R,5R)-3-Amino-5-fluoropiperidin-1-yl)-N-(1-((1r,4r)-4-(2-(4-(4-(2,6-dioxopiperidin-3-yl)phenyl)piperazin-1-yl)ethyl)cyclohexyl)-3-(trifluoromethyl)-1H-pyrazol-4-yl) pyrazolo[1,5-a]pyrimidine-3-carboxamide hydrochloride], the IC50 on IRAK4 [1] worked out at 0.4 nM. Also, on IRAK4 [2], the “ALE THP1 HTRF YMIN” value came out at 19% and the DC50 was found to be 15 nM.

For the compound `N[C@@H]1C[C@@H](F)CN(c2ccn3ncc(C(=O)Nc4cn([C@H]5CC[C@H](C(=O)N6CCC(CNc7ccc(C8CCC(=O)NC8=O)cc7)CC6)CC5)nc4C(F)(F)F)c3n2)C1` (stereo partly drawn) [Compound P-2, N-[1-[4-[4-[[4-(2,6-Dioxo-3-piperidyl)anilino]methyl]piperidine-1-carbonyl]cyclohexyl]-3-(trifluoromethyl)pyrazol-4-yl]-5-[(3R,5R)-3-amino-5-fluoro-1-piperidyl]pyrazolo[1,5-a]pyrimidine-3-carboxamide hydrochloride], the half-maximal inhibitory concentration (IC50) on IRAK4 [1] came to 0.3 nM. Besides, at IRAK4 [2], the “ALE THP1 HTRF YMIN” value is 68% and the DC50 came out at 96 nM.

As for `N[C@@H]1C[C@@H](F)CN(c2ccn3ncc(C(=O)Nc4cn([C@H]5CC[C@H](C(=O)N6CCC(Nc7ccc(C8CCC(=O)NC8=O)cc7)CC6)CC5)nc4C(F)(F)F)c3n2)C1` (stereo partly shown) [Compound P-7], at IRAK4 [1], the half-maximal inhibitory concentration (IC50) was 0.3 nM. At IRAK4 [2], the “ALE THP1 HTRF YMIN” value is 52% and the DC50 is over 10000 nM.

Regarding `N[C@@H]1C[C@@H](F)CN(c2ccn3ncc(C(=O)Nc4cn([C@H]5CC[C@H](CN6CCC(CNc7ccc(C8CCC(=O)NC8=O)cc7)CC6)CC5)nc4C(F)(F)F)c3n2)C1` (stereo partly shown) [Compound P-3], the IC50 on IRAK4 [1] came to 0.3 nM. At IRAK4 [2], the “ALE THP1 HTRF YMIN” value is recorded as 81% and the DC50 worked out at 177 nM.

Consider `N[C@@H]1C[C@@H](F)CN(c2ccn3ncc(C(=O)Nc4cn([C@H]5CC[C@H](C(=O)N6CCC(CNc7cccc(C8CCC(=O)NC8=O)c7)CC6)CC5)nc4C(F)(F)F)c3n2)C1` (stereo partly drawn) [Compound P-1, N-[1-[4-[4-[[3-(2,6-dioxo-3-piperidyl)anilino]methyl]piperidine-1-carbonyl]cyclohexyl]-3-(trifluoromethyl)pyrazol-4-yl]-5-[(3R,5R)-3-amino-5-fluoro-1-piperidyl]pyrazolo[1,5-a]pyrimidine-3-carboxamide hydrochloride salt], for which the IC50 at IRAK4 [1] came to 0.4 nM. On IRAK4 [2], the “ALE THP1 HTRF YMIN” value came to 10% and the DC50 is 7 nM.

For the compound `N[C@@H]1C[C@@H](F)CN(c2ccn3ncc(C(=O)Nc4cn([C@H]5CC[C@H](C(=O)NC6CCN(c7ccc(C8CCC(=O)NC8=O)cc7)CC6)CC5)nc4C(F)F)c3n2)C1` (stereo partly drawn) [Compound P-15, 5-[(3R,5R)-3-amino-5-fluoro-1-piperidyl]-N-[3-(difluoromethyl)-1-[4-[[1-[4-(2,6-dioxo-3-piperidyl)phenyl]-4-piperidyl]carbamoyl]cyclohexyl]pyrazol-4-yl]pyrazolo[1,5-a]pyrimidine-3-carboxamide hydrochloride], on IRAK4 [2], the “ALE THP1 HTRF YMIN” value worked out at 11% and the DC50 came out at 4 nM.

With `N[C@@H]1C[C@@H](F)CN(c2ccn3ncc(C(=O)Nc4cn([C@H]5CC[C@H](CCN6CCN(c7cccc(C8CCC(=O)NC8=O)c7)CC6)CC5)nc4C(F)F)c3n2)C1` (stereo partly shown) [Compound P-22], on IRAK4 [2], the “ALE THP1 HTRF YMIN” value was 43% and the DC50 came to 3010 nM.

Consider `N[C@@H]1C[C@@H](F)CN(c2ccn3ncc(C(=O)Nc4cn([C@H]5CC[C@H](CCN6CCC[C@H](c7ccc(C8CCC(=O)NC8=O)cc7)C6)CC5)nc4C(F)F)c3n2)C1` (stereo partly shown) [Compound P-28], for which, on IRAK4 [2], the “ALE THP1 HTRF YMIN” value is on record as over 95% and the DC50 was over 10000 nM.

In the case of `CN(CC1CCN(C[C@H]2CC[C@H](n3cc(NC(=O)c4cnn5ccc(N6C[C@H](N)C[C@@H](F)C6)nc45)c(C(F)F)n3)CC2)CC1)c1cccc(C2CCC(=O)NC2=O)c1` (stereo partly drawn) [Compound P-19, N-[3-(Difluoromethyl)-1-[4-[4-[[3-(2,6-dioxo-3-piperidyl)-N-methyl-anilino]methyl]-1-piperidyl]methyl]cyclohexyl]pyrazol-4-yl]-5-[(3R,5R)-3-amino-5-fluoro-1-piperidyl]pyrazolo[1,5-a]pyrimidine-3-carboxamide dihydrochloride], at IRAK4 [2], the “ALE THP1 HTRF YMIN” value was 11% and the DC50 stood at 10 nM.

Consider `N[C@@H]1C[C@@H](F)CN(c2ccn3ncc(C(=O)Nc4cn([C@H]5CC[C@H](C(=O)NC6CCN(c7ccc(C8CCC(=O)NC8=O)nc7)CC6)CC5)nc4C(F)F)c3n2)C1` (stereo partly shown) [Compound P-25], for which, on IRAK4 [2], the “ALE THP1 HTRF YMIN” value is 15% and the DC50 stood at 6 nM.

Regarding `N[C@@H]1C[C@@H](F)CN(c2ccn3ncc(C(=O)Nc4cn([C@H]5CC[C@H](CCN6CCC7(CC6)CN(c6ccc(C8CCC(=O)NC8=O)cc6)C7)CC5)nc4C(F)F)c3n2)C1` (stereo partly drawn) [Compound P-23, N-[3-(Difluoromethyl)-1-[4-[2-[2-[4-(2,6-dioxo-3-piperidyl)phenyl]-2,7-diazaspiro[3.5]nonan-7-yl]ethyl]cyclohexyl]pyrazol-4-yl]-5-[(3R,5R)-3-amino-5-fluoro-1-piperidyl]pyrazolo[1,5-a]pyrimidine-3-carboxamide formic acid salt], at IRAK4 [2], the “ALE THP1 HTRF YMIN” value was 15% and the DC50 worked out at 11 nM.

Consider `N[C@@H]1C[C@@H](F)CN(c2ccn3ncc(C(=O)Nc4cn([C@H]5CC[C@H](C(=O)N[C@H]6CC[C@H](c7ccc(C8CCC(=O)NC8=O)cn7)CC6)CC5)nc4C(F)F)c3n2)C1` (stereo partly shown) [Compound P-33], for which, on IRAK4 [2], the “ALE THP1 HTRF YMIN” value was found to be 22% and the DC50 was found to be 3 nM.

For `CN(CC1CCN(C(=O)[C@H]2CC[C@H](n3cc(NC(=O)c4cnn5ccc(N6C[C@H](N)C[C@@H](F)C6)nc45)c(C(F)F)n3)CC2)CC1)c1cccc(C2CCC(=O)NC2=O)c1` (stereo partly drawn) [Compound P-16, 5-((3R,5R)-3-amino-5-fluoropiperidin-1-yl)-N-(3-(difluoromethyl)-1-((1r,4r)-4-(4-(((3-(2,6-dioxopiperidin-3-yl)phenyl)(methyl)amino)methyl)piperidine-1-carbonyl)cyclohexyl)-1H-pyrazol-4-yl)pyrazolo[1,5-a]pyrimidine-3-carboxamide hydrochloride], at IRAK4 [2], the “ALE THP1 HTRF YMIN” value stood at 18% and the DC50 was 28 nM.
